In US9572878B2, “Method of combination therapy using an EGFR antagonist and anti-c-Met antibody” (SAMSUNG ELECTRONICS CO., LTD., priority 2013, dated 2017):

Legend:
HCC827 ER #15 cell line = assay: Confirmation of erlotinib resistance, cell number by CCK-8; type: cell-based, human; settings: HCC827 ER #15 vs HCC827; various concentrations, 120 hours; FIG. 3
Procedure: HCC827 human lung cancer cell line was in vitro treated with an EGFR antagonist erlotinib for a given period to establish HCC827 ER(HCC827 erlotinib-resistant) cell line. More specifically, HCC827 human lung cancer cell line (CRL-2868, ATCC) was in vitro treated with an EGFR antagonist erlotinib (Roche) in an amount of 5 nM to 10 nM for 5 months or more, to construct Erlotinib resistant cell (ER cell) clone.

HCC827 ER #15 = assay: Combined use of erlotinib and antibodies in erlotinib resistant cell line, cell number by CCK-8; type: cell-based, human
Procedure: In a 96 well plate, diluted HCC827 ER #15 was seeded at 5000 cells/well in a […] medium (GIBCO) containing 10% FBS, and then, incubated at 37° C. overnight. On the next day, the medium was replaced with a RPMI1640 medium containing 1% FBS (GIBCO), and then, the antibody was serially diluted from 100 ug/ml, and the cells were treated therewith at 100 ul. For co-administration, the cells were treated with 10 nM or 100 nM erlotinib, together with the antibody. After 5 days, the number of cells was measured using a CCK-8 reagent (Dojindo laboratory).

c-Met = c-Met (Homo sapiens, UniProt P08581); assay: Specificity of expressed scFv of huAbF46; type: binding; settings: expressed scFv product
From the text: For use in constructing an scFv of the huAbF46 antibody from the heavy and light chain variable regions of the huAbF46 antibody, a gene was designed to have the structure of “VH-linker-VL” for each of the heavy and the light chain variable region, with the linker having the amino acid sequence “[…]” (SEQ ID NO: 54). A polynucleotide sequence (SEQ ID NO: 55) encoding the designed scFv of huAbF46 was synthesized in Bioneer and an expression vector for the polynucleotide had the nucleotide sequence of SEQ ID NO: 56.

c-Met, sequence (P08581 25-1390): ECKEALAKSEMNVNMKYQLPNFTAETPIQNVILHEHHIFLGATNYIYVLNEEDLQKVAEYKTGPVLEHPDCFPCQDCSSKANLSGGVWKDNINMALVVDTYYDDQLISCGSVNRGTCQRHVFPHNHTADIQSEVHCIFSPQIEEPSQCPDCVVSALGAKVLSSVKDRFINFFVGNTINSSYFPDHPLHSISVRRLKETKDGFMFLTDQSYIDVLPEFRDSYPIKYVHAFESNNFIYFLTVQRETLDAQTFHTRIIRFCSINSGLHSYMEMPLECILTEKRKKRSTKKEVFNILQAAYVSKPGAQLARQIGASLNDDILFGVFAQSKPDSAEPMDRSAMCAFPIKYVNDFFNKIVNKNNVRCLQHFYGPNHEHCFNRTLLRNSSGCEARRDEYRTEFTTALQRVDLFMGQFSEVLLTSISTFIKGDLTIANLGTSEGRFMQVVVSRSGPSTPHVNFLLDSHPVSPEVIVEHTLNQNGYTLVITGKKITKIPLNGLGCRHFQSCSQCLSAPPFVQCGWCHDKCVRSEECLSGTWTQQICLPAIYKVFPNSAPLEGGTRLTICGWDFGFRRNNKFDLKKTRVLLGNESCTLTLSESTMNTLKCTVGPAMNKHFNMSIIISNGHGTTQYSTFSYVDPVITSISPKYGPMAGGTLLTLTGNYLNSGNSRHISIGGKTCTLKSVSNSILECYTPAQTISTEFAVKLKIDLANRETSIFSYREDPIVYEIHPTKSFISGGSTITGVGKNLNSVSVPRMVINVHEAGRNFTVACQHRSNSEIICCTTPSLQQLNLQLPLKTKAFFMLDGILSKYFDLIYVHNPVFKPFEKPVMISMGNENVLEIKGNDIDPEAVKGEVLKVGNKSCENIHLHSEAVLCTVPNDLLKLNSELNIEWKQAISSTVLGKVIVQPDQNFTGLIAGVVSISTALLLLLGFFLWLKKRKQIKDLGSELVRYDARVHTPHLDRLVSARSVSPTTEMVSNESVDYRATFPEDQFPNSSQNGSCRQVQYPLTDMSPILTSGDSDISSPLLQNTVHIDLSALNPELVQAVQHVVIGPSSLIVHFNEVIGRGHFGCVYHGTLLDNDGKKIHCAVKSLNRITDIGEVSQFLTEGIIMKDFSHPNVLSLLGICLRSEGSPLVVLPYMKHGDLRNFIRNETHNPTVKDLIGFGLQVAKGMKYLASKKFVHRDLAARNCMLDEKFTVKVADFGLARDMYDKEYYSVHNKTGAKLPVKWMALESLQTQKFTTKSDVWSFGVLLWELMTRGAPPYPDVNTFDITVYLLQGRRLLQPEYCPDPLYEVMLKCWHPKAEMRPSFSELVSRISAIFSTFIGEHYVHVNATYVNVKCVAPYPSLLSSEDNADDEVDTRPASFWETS

C#Cc1cccc(Nc2ncnc3cc(OCCOC)c(OCCOC)cc23)c1 [erlotinib]
resistance of cell line to EGFR antagonist (HCC827 ER #15 cell line): resistance occurred

Rituximab [reference compound]
synergistic effect of co-administration with erlotinib (HCC827 ER #15; HCC827 ER #15, antibody dilution series with 10 nM or 100 nM erlotinib, 5 days, FIGS. 4a-4d): synergistic effect was not observed
synergistic effects on cell viability, co-administration with erlotinib at fixed concentrations (HCC827 ER #15; HCC827 ER#15, antibodies 0.14 μg/ml, erlotinib 10 nM, FIG. 5): synergistic effects were not observed

B1: scFv of huAbF46: VH-linker-VL single-chain Fv of the huAbF46 antibody (polynucleotide SEQ ID NO: 55) (protein)
scFv: EVQLVESGGGLVQPGGSLRLSCAASGFTFTDYYMSWVRQAPGKGLEWLGFIRNKANGYTTEYSASVKGRFTISRDNSKNTLYLQMNSLRAEDTAVYYCARDNWFAYWGQGTLVTVSSGLGGLGGGGSGGGGSGGSSGVGSDIQMTQSPSSLSASVGDRVTITCKSSQSLLASGNQNNYLAWHQQKPGKAPKMLIIWASTRVSGVPSRFSGSGSGTDFTLTISSLQPEDFATYYCQQSYSAPLTFGQGTKVEIKR
specificity to c-Met (c-Met): exhibit specificity to c-Met
